Tests used:
weanling piglets [1] = assay: Synergy of derivatives and colistin sulfate in the feed for weanling piglets; format: in vivo, Duroc×Landrace×Large crossbred lean weanling piglets; conditions: creep feed with 20 ppm colistin sulfate and 150 ppm derivative (hydrochloride), ten days
Protocol: (§1) 90 28-day-aged Duroc×Landrace×Large crossbred lean weanling piglets similar in weight were divided into 9 groups, 10 piglets in each group. For each group, colistin sulfate and/or various substituted benzylideneguanidine derivatives were added into the antibiotic-free creep feed. The piglets were given ad libitum access to feed and water during the experiment. Weight gain, feed efficiency and diarrhea rate of each group within ten days were recorded.

[2] = test system: fast-growing yellow feather broilers; assay: Combined application of compound 3 and colistin sulfate in chicken feed; format: in vivo; conditions: 28-day experiment; for Average daily weight gain / Feed conversion ratio / Survival rate: broilers
Protocol: (§2) 800 1-day-aged fast-growing yellow feather broilers were divided into 4 groups, 4 parallels in each group and 50 broilers in each parallel. For each group, colistin sulfate and/or compound 3 were added into the feed. The chicken were kept in cages and given ad libitum access to feed and water during a 28-day experiment. Synergy of compound 3 and colistin sulfate on the chicken in the weight gain and feed efficiency was observed from the result (see Table 10).

E. coli 5F-1 = assay: MIC, resistance reversal by various concentrations of compound 3, E. coli 5F-1
Protocol: (§3) The compound 3 in this embodiment was in the form of a hydrochloride, i.e., the experiments were carried out with a hydrochloride of compound 3.
(§4) In vitro minimum inhibitory concentrations of colistin sulfate against the strains where the cultures respectively comprised various concentrations of compound 3 were also measured.

E. coli 5W-7 = assay: MIC by doubling dilution, colistin sulfate-susceptible E. coli 5W-7; format: cell-based, Escherichia coli
[3] = test system: various colistin sulfate-resistant Gram-negative bacteria; assay: MIC by doubling dilution, summary over resistant species; conditions: compound 3 alone (hydrochloride)
Protocol: as §3, §4

cherry valley ducks = assay: Combined application of compound 3 and colistin sulfate in duck feed; format: in vivo; conditions: 21-day experiment
Protocol: as §2, with “cherry valley ducks” for “fast-growing yellow feather broilers”, “groups according to Table 10,” for “groups,”, “ducks” for “broilers”, “ducks” for “chicken”, “21-day” for “28-day”, “11).” for “10).”

E. coli 3B-24 = assay: MIC by doubling dilution, colistin sulfate-susceptible E. coli 3B-24; format: cell-based, Escherichia coli
Shigella sp. 2D89 = assay: MIC, resistance reversal by various concentrations of compound 3, Shigella sp. 2D89
Protocol: as §3, §4

Klebsiella sp. 4125 = assay: MIC, resistance reversal by various concentrations of compound 3, Klebsiella sp. 4125
Protocol: as §3, §4

E. coli 2G-7 = assay: MIC by doubling dilution, colistin sulfate-resistant E. coli 2G-7
Protocol: (§5) In vitro minimum inhibitory concentrations of colistin sulfate against the strains where the cultures respectively comprised 20.0 ppm of the substituted benzylideneguanidine derivatives were also measured.

weanling piglets [4] = assay: Compound 3 in various dosages and colistin sulfate in the feed for weanling piglets; format: in vivo, Duroc×Landrace×Large crossbred lean weanling piglets; conditions: for Average daily weight gain / Diarrhea rate / Feed conversion ratio: ten days
Protocol: as §1, with “dosages of compound 3” for “substituted benzylideneguanidine derivatives”

E. coli 3H-4 = assay: MIC by doubling dilution, colistin sulfate-resistant E. coli 3H-4
Protocol: as §5

Salmonella sp. 3087 = assay: MIC, resistance reversal by various concentrations of compound 3, Salmonella sp. 3087
Protocol: as §3, §4

P. aeruginosa E543 = assay: MIC, resistance reversal by various concentrations of compound 3, P. aeruginosa E543
Protocol: as §3, §4

E. coli 3Y-9 = assay: MIC by doubling dilution, colistin sulfate-susceptible E. coli 3Y-9; format: cell-based, Escherichia coli
[5] = 20 ppm colistin sulfate and 50 ppm compound 3 in feed (Test)
[6] = colistin sulfate with 0 ppm compound 3, or compound 3 (hydrochloride) in the absence of colistin sulfate
[7] = 20 ppm colistin sulfate + 10 ppm compound 3 in creep feed (Test 1)
[8] = 20 ppm colistin sulfate + 25 ppm compound 3 in creep feed (Test 2)
[9] = 20 ppm colistin sulfate + 50 ppm compound 3 in creep feed (Test 3)
[10] = 20 ppm colistin sulfate + 100 ppm compound 3 in creep feed (Test 4)
[11] = 20 ppm colistin sulfate + 200 ppm compound 3 in creep feed (Test 5)
[12] = 20 ppm colistin sulfate + 500 ppm compound 3 in creep feed (Test 6)
[13] = only 200 ppm compound 3 in creep feed, no colistin sulfate

CC(C)Oc1ccc(C=NN=C(N)NN=Cc2ccc(OC(C)C)cc2)cc1 [Compound 3]
Average daily weight gain (weanling piglets [1]): 258 g
Diarrhea rate (weanling piglets [1]): 8%
Feed conversion ratio (weanling piglets [1]): 1.441
Average daily weight gain [2, 5]: 44.6 g
Feed conversion ratio [2, 5]: 1.855
Survival rate [2, 5]: 100%
Average daily weight gain ([2]; 100 ppm compound 3 in feed): 40.2 g
Feed conversion ratio ([2]; 100 ppm compound 3 in feed): 1.943
Survival rate ([2]; 100 ppm compound 3 in feed): 100%
Synergy with colistin sulfate in weight gain and feed efficiency ([2]; chicken): Synergy
In vitro MIC of colistin sulfate in the presence of compound 3 (E. coli 5F-1; 5 ppm compound 3): 32.00 ppm
In vitro MIC of colistin sulfate in the presence of compound 3 (E. coli 5F-1; 10 ppm compound 3): 8.00 ppm
In vitro MIC of colistin sulfate in the presence of compound 3 (E. coli 5F-1; 20 ppm compound 3): 1.00 ppm
In vitro MIC of colistin sulfate in the presence of compound 3 (E. coli 5F-1; 40 ppm compound 3): 1.00 ppm
In vitro MIC of colistin sulfate in the presence of compound 3 (E. coli 5F-1; 80 ppm compound 3): 0.50 ppm
In vitro MIC of the substance alone (E. coli 5F-1; [6]): >800 ppm
In vitro minimum inhibitory concentration (MIC) of the substance alone (E. coli 5W-7; E. coli 5W-7, colistin sulfate-susceptible, substance alone, derivatives as hydrochlorides): >800 ppm
In vitro MIC of colistin sulfate in the presence of the substituted benzylideneguanidine derivative (E. coli 5W-7; E. coli 5W-7, culture comprised 20.0 ppm of the derivative (hydrochloride), colistin sulfate serially diluted): 0.25 ppm
Inhibitory activity on the tested strains [3]: did not exhibit inhibitory activity
Average daily weight gain (cherry valley ducks; [5]): 55.6 g
Feed conversion ratio (cherry valley ducks; [5]): 1.817
Survival rate (cherry valley ducks; [5]): 100%
Synergy with colistin sulfate in weight gain and feed efficiency (cherry valley ducks): Synergy
Average daily weight gain (cherry valley ducks; 100 ppm compound 3 in feed): 50.5 g
Feed conversion ratio (cherry valley ducks; 100 ppm compound 3 in feed): 1.926
Survival rate (cherry valley ducks; 100 ppm compound 3 in feed): 100%
In vitro minimum inhibitory concentration (MIC) of the substance alone (E. coli 3B-24; E. coli 3B-24, colistin sulfate-susceptible, substance alone, derivatives as hydrochlorides): >800 ppm
In vitro MIC of colistin sulfate in the presence of the substituted benzylideneguanidine derivative (E. coli 3B-24; E. coli 3B-24, culture comprised 20.0 ppm of the derivative (hydrochloride), colistin sulfate serially diluted): 0.50 ppm
In vitro MIC of colistin sulfate in the presence of compound 3 (Shigella sp. 2D89; 5 ppm compound 3): 16.00 ppm
In vitro MIC of colistin sulfate in the presence of compound 3 (Shigella sp. 2D89; 10 ppm compound 3): 2.00 ppm
In vitro MIC of colistin sulfate in the presence of compound 3 (Shigella sp. 2D89; 20 ppm compound 3): 1.00 ppm
In vitro MIC of colistin sulfate in the presence of compound 3 (Shigella sp. 2D89; 40 ppm compound 3): 0.25 ppm
In vitro MIC of colistin sulfate in the presence of compound 3 (Shigella sp. 2D89; 80 ppm compound 3): 0.25 ppm
In vitro MIC of the substance alone (Shigella sp. 2D89; [6]): >800 ppm
In vitro MIC of colistin sulfate in the presence of compound 3 (Klebsiella sp. 4125; 5 ppm compound 3): 32.00 ppm
In vitro MIC of colistin sulfate in the presence of compound 3 (Klebsiella sp. 4125; 10 ppm compound 3): 8.00 ppm
In vitro MIC of colistin sulfate in the presence of compound 3 (Klebsiella sp. 4125; 20 ppm compound 3): 2.00 ppm
In vitro MIC of colistin sulfate in the presence of compound 3 (Klebsiella sp. 4125; 40 ppm compound 3): 1.00 ppm
In vitro MIC of colistin sulfate in the presence of compound 3 (Klebsiella sp. 4125; 80 ppm compound 3): 1.00 ppm
In vitro MIC of the substance alone (Klebsiella sp. 4125; [6]): >800 ppm
In vitro minimum inhibitory concentration (MIC) of the substance alone (E. coli 2G-7; E. coli 2G-7, colistin sulfate-resistant, substance alone, derivatives as hydrochlorides): >800 ppm
In vitro MIC of colistin sulfate in the presence of the substituted benzylideneguanidine derivative (E. coli 2G-7; E. coli 2G-7, resistant, culture comprised 20.0 ppm of the derivative (hydrochloride)): 1.0 ppm
Average daily weight gain (weanling piglets [4]; [7]): 215 g
Diarrhea rate (weanling piglets [4]; [7]): 30%
Feed conversion ratio (weanling piglets [4]; [7]): 1.632
Average daily weight gain (weanling piglets [4]; [8]): 226 g
Diarrhea rate (weanling piglets [4]; [8]): 26%
Feed conversion ratio (weanling piglets [4]; [8]): 1.578
Average daily weight gain (weanling piglets [4]; [9]): 237 g
Diarrhea rate (weanling piglets [4]; [9]): 20%
Feed conversion ratio (weanling piglets [4]; [9]): 1.532
Average daily weight gain (weanling piglets [4]; [10]): 248 g
Diarrhea rate (weanling piglets [4]; [10]): 16%
Feed conversion ratio (weanling piglets [4]; [10]): 1.499
Average daily weight gain (weanling piglets [4]; [11]): 255 g
Diarrhea rate (weanling piglets [4]; [11]): 6%
Feed conversion ratio (weanling piglets [4]; [11]): 1.417
Average daily weight gain (weanling piglets [4]; [12]): 259 g
Diarrhea rate (weanling piglets [4]; [12]): 3%
Feed conversion ratio (weanling piglets [4]; [12]): 1.428
Dosage dependence of diarrhea rate and productivity (weanling piglets [4]; colistin sulfate added together with compound 3, weanling piglets): a higher dosage of compound 3 led to a better effect
Average daily weight gain (weanling piglets [4]; [13]): 228 g
Diarrhea rate (weanling piglets [4]; [13]): 29%
Feed conversion ratio (weanling piglets [4]; [13]): 1.596
In vitro minimum inhibitory concentration (MIC) of the substance alone (E. coli 3H-4; E. coli 3H-4, colistin sulfate-resistant, substance alone, derivatives as hydrochlorides): >800 ppm
In vitro MIC of colistin sulfate in the presence of the substituted benzylideneguanidine derivative (E. coli 3H-4; E. coli 3H-4, resistant, culture comprised 20.0 ppm of the derivative (hydrochloride)): 0.5 ppm
In vitro MIC of colistin sulfate in the presence of compound 3 (Salmonella sp. 3087; 5 ppm compound 3): 64.00 ppm
In vitro MIC of colistin sulfate in the presence of compound 3 (Salmonella sp. 3087; 10 ppm compound 3): 16.00 ppm
In vitro MIC of colistin sulfate in the presence of compound 3 (Salmonella sp. 3087; 20 ppm compound 3): 4.00 ppm
In vitro MIC of colistin sulfate in the presence of compound 3 (Salmonella sp. 3087; 40 ppm compound 3): 2.00 ppm
In vitro MIC of colistin sulfate in the presence of compound 3 (Salmonella sp. 3087; 80 ppm compound 3): 1.00 ppm
In vitro MIC of the substance alone (Salmonella sp. 3087; [6]): >800 ppm
In vitro MIC of colistin sulfate in the presence of compound 3 (P. aeruginosa E543; 5 ppm compound 3): 32.00 ppm
In vitro MIC of colistin sulfate in the presence of compound 3 (P. aeruginosa E543; 10 ppm compound 3): 8.00 ppm
In vitro MIC of colistin sulfate in the presence of compound 3 (P. aeruginosa E543; 20 ppm compound 3): 2.00 ppm
In vitro MIC of colistin sulfate in the presence of compound 3 (P. aeruginosa E543; 40 ppm compound 3): 0.50 ppm
In vitro MIC of colistin sulfate in the presence of compound 3 (P. aeruginosa E543; 80 ppm compound 3): 0.50 ppm
In vitro MIC of the substance alone (P. aeruginosa E543; [6]): >800 ppm
In vitro minimum inhibitory concentration (MIC) of the substance alone (E. coli 3Y-9; E. coli 3Y-9, colistin sulfate-susceptible, substance alone, derivatives as hydrochlorides): >800 ppm
In vitro MIC of colistin sulfate in the presence of the substituted benzylideneguanidine derivative (E. coli 3Y-9; E. coli 3Y-9, culture comprised 20.0 ppm of the derivative (hydrochloride), colistin sulfate serially diluted): 0.50 ppm
